Results on one compound are retold here after paper PMC8155809 (The Journal of General Physiology, 2021).

One series deals with T1, WT TREK-2 (Homo sapiens, UniProt P57789).
T1 construct: full-length WT TREK-2 channels, we examined its effects on the mean open time of TREK-2 channels expressed in HEK293 cells; expressed in transfected cells; host or cells: HEK293 cells, transient transfection with pcDNA3
T1 sequence (P57789 1-543 isoform P57789-4): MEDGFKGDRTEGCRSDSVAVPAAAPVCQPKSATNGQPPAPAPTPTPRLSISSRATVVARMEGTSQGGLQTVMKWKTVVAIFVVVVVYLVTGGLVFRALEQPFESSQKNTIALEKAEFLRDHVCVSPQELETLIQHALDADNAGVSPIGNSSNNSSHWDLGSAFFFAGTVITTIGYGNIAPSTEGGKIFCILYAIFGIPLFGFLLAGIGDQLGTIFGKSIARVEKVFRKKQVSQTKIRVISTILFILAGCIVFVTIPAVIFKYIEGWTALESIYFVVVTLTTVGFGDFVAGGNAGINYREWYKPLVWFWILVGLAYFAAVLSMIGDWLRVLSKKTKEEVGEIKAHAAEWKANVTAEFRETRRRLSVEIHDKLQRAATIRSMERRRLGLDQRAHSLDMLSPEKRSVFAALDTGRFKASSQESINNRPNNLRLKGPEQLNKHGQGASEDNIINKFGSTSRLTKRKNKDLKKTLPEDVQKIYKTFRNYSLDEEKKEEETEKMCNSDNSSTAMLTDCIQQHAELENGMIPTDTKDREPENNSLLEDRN
As to the kind of experiment: Single-channel recordings of WT TREK-2 in excised patches from HEK293 cells. The series is classed as cell-based. The method, then: (§1) Full-length human TREK-2 isoform 3 (NCBI accession no. NP_612191) was used throughout this study and was subcloned into the pFAW vector for expression in oocytes. The truncated construct used to generate protein (TREK-2ΔN/ΔC) is identical to that used previously to obtain crystal structures ([Dong et al., 2015]); it contains a deletion of 71 residues at the N terminus and 213 residues at the C terminus. […] Desamino chloro-fluoxetine (Toronto Research Chemicals) was dissolved in chloroform and diluted to working concentrations on the day of experimenting (maximum final concentration was 0.01%).
HEK293 cells were cultured in DMEM (Sigma) containing 10% FBS (Life Technologies), 3 mM glucose, and 2 mM glutamine at 37°C in a humidified atmosphere of 5% CO2/[…] at 37°C. Cells were transiently transfected with 0.2 µg channel pcDNA3 per dish using FuGENE 6 according to the manufacturer’s instructions. Cells were used 1–2 d after transfection.
(§2) For currents recorded in Xenopus laevis oocytes, giant-patch electrodes were pulled from thick-walled borosilicate glass and polished to give pipette resistances of ∼0.3–0.5 MΩ when filled with patch solution. Pipette solution contained (in mM) 116 NMDG, 4 KCl, 1 MgCl2, 3.6 CaCl2, and 10 HEPES (pH 7.4), while the bath solution contained (in mM) 120 KCl, 1 NaCl, 2 EGTA, and 10 HEPES (pH 7.3). Patches were perfused via a gravity-flow perfusion system and a HEKA EPC 10 USB single computer–controlled amplifier was used and currents recorded using a Patchmaster v2 × 90.5 (HEKA Electronics), filtered at 1 kHz, and sampled at 10 kHz. For currents recorded in HEK293 cells, patch electrodes were pulled from thick-walled borosilicate glass and polished to give pipette resistances of ∼3–5 MΩ when filled with patch solution. The currents were recorded from excised patches with both intracellular and extracellular solution containing 200 mM KCl and 10 mM HEPES (pH 6.0 with KOH). Patches were perfused via a gravity-flow perfusion system. Data were acquired with pClamp and recorded using an Axopatch 200B (Molecular Devices), filtered at 5 kHz, and sampled at 200 kHz. Single-channel currents were analyzed in an identical manner to those obtained from bilayers (see above).

A further series concerns the target T2, human TREK-2 (Homo sapiens, UniProt P57789).
T2 construct: expressed in transfected cells; host or cells: Xenopus laevis oocytes injected with in vitro transcribed mRNA (pFAW vector)
T2 sequence (P57789 1-543 isoform P57789-4): T1 sequence (P57789 1-543 isoform P57789-4)
As to the kind of experiment: Macroscopic TREK-2 currents in giant excised patches from Xenopus oocytes. The series is classed as cell-based. The method, then: as §1
Oocytes were prepared for injection of mRNA by collagenase digestion followed by manual defolliculation and stored in ND96 solution that contained (in mM) 96 NaCl, 2 KCl, 1.8 CaCl2, 1 MgCl2, and 10 HEPES (pH 7.4) and was supplemented with 2.5 mM sodium pyruvate 50 µg/ml gentamycin, 50 µg/ml tetracycline, 50 µg/ml ciprofloxacin, and 100 µg/ml amikacin. Cells were injected with 1–4 ng mRNA up to 4 d after isolation. In vitro transcription of mRNA was done using the Amplicap SP6 Kit (Cambio). Experiments were performed 12–24 h after injection at room temperature (22°C unless otherwise indicated). For measurement and comparison of basal whole-cell currents, oocytes were injected with 4 ng RNA and recorded exactly 24 h after injection.
as §2
The macroscopic concentration–inhibition relationships in Figs. 1 and 2 were fitted with a modified Hill equation:
I/I0=a+1−a/1+([X]/IC50)^h, (1) where I and IO are the currents in the presence and absence of inhibitor, respectively, [X] is the concentration of inhibitor, IC50 is the inhibitor concentration at which the inhibition is half maximal, h is the Hill coefficient, and a is the fraction of unblockable current; a = 0, except where indicated in the legend to Fig. 1.
The macroscopic concentration–activation relationships in Fig. 1 E were fitted with a modified Hill equation: I/I0=a+(1−a)([X]/IC50)^h/1+([X]/IC50)^h, (2) where I and IO are the currents in the presence and absence of agonist, respectively, [X] is the concentration of agonist, IC50 is the agonist concentration at which the activation is half maximal, h is the Hill coefficient, and a is the fraction of initial current.

Series [1] can be described thus: Electrostriction measurement of membrane elasticity. The following applies: 1–1,000 µM NFx. It is filed as physicochemical. How it is done: Membrane elasticity measurements were performed as described previously ([Vitovic et al., 2013]). Briefly, a 1 kHz sine wave with an amplitude of 100 mV was applied to the membrane using a wave generator (Rigol DG821; Rigol Technologies). Due to the nonlinear dependence of membrane capacitance on the voltage V [C = C0 (1 + αV^2)], where C0 is the capacitance at V = 0 and α is the electrostriction coefficient, a third current harmonic with frequency 3 kHz and amplitude A3 is generated in addition to the basic first current harmonic, A1 (frequency 1 kHz).

[2] abbreviates: +40 mV, in the presence of 80 µM TPA.

SMILES strings stand for the structures. Read-outs that look alike come from different tables or passages of the source.

For the compound `NCCC(Oc1ccc(C(F)(F)F)cc1)c1ccccc1` (centres unmarked) [NFx, norfluoxetine], the “mean Po” value at WT TREK-2 (10 µM NFx in the presence of 100 µM ML335, −40 mV) worked out at 0.69 ± 0.2. In addition, the “amplitude ratio of γ” value at WT TREK-2 (10 µM NFx in the presence of 100 µM ML335 vs ML335 alone, −40 mV) is on record as 1.00 ± 0.01. Also, at WT TREK-2 (10 µM NFx, Fig. S6), the “reduction of τo (mean open time)” value is ~30%. The “reduction of Po of WT TREK-2 channel” value at WT TREK-2 (10 µM NFx, no further change in the presence of NFx, as in Fig. S6) was found to be 79 ± 0.05%. Moreover, at WT TREK-2 (10 µM NFx, −10 mV), the “τo (mean open time)” value was found to be 0.89 ms. In addition, at WT TREK-2 (10 µM, −40 mV (Fig. 6B)), the “reduction in γ (single-channel current amplitude)” value is reported as 11 ± 7%. Further, on WT TREK-2 (10 µM, −40 mV (Fig. 6B)), the “reduction of channel Po” value stood at 70 ± 0.03%. In addition, the “h (Hill coefficient), NFx inhibition” value on human TREK-2 (0 mV, Fig. S4) was 0.72; on human TREK-2 (+40 mV, Fig. S4) it was 0.74; on human TREK-2 (+40 mV, NFx on its own, Fig. 1E), 1.0; at human TREK-2 (setting [2]), 1.2; on human TREK-2 (+40 mV, in the presence of 100 mM TEA), 0.8; at human TREK-2 (+80 mV, Fig. S4), 0.79. Moreover, the “h (Hill coefficient), NFx inhibition” value on human TREK-2 (NFx on its own, Fig. 2C) is listed as 1.7; at human TREK-2 (in the presence of 50 µM ML335), 0.8; on human TREK-2 (in the presence of 1 mM 2-APB), 0.6. Besides, the “a (fraction of unblockable current)” value at human TREK-2 (setting [2]) is on record as 0.05. Also, the IC50 – broadly, the concentration that inhibits the measured activity by half – against human TREK-2 (IC50, NFx inhibition of TREK-2 currents, +40 mV, NFx on its own, Fig. 1E) is 2700 nM; at human TREK-2 (IC50, NFx inhibition of macroscopic WT TREK-2 currents, 0 mV, Fig. S4), 4200 nM; on human TREK-2 (IC50, NFx inhibition of macroscopic WT TREK-2 currents, +40 mV, Fig. S4) it was 2000 nM; against human TREK-2 (IC50, NFx inhibition of macroscopic WT TREK-2 currents, +80 mV, Fig. S4), 1400 nM; on human TREK-2 (giant inside-out patches, physiological pH 7.4, NFx alone, read-out: IC50 for channel inhibition), ~3000 nM. Besides, the “effect on the modulus of elasticity (E⊥)” value in series [1] is given as “no obvious effect”.
